From patent US20230250436A1, “NUCLEIC ACID THAT INTERACTS WITH A RECEPTOR FOR ENDOCRINE DISRUPTING CHEMICALS AND USE THEREOF” (KUMIAI CHEMICAL INDUSTRY CO., LTD., priority 2020, published 2023)

Assays:
Format in all cases: cell-based
[1] = tested on: juvenile hormone receptor of Daphnia magna (DampaMET); experiment: Yeast reporter (β-galactosidase) assay, transformants with DampaMET and DampaSRC; set-up: key to Increase in induction: increase of induction; positive value = reporter activity to substance
Experimental: (§1) Subsequently, a reporter plasmid prepared by inserting the nucleotide sequence shown in SEQ ID NO: 2 into a yeast comprising the DampaMET plasmid and the DampaSRC plasmid introduced thereinto by the lithium acetate method. Thus, Yeast 1 of Invention was obtained. In the same manner, Yeasts 2 to 38 of Invention each comprising the response element according to the present invention and Control yeasts 1 to 9 shown in Table 3 were prepared.
(§2) With the use of the Yeast 1 of Invention, reporter activity to methyl farnesoate as a juvenile hormone substance was measured. At the outset, the Yeast 1 of Invention was subjected to pre-culture at 30° C. for 18 hours using the pre-culture medium shown in Table 1 until the turbidity (O.D. 595) of the pre-culture medium reached approximately 0.1. The solution of the pre-cultured cells (10 μl) and 1 μl of the solution of methyl farnesoate diluted to various concentrations with dimethyl sulfoxide (DMSO) were mixed with 90 μl of the main culture solution shown in Table 4 in a 96-well plate, and the mixture was subjected to static culture at 30° C. for 18 hours to prepare a reaction solution. The resultant was designated as a test group.
(§3) A reaction solution prepared with the addition of 1 μl of DMSO instead of a diluted methyl farnesoate solution was designated as a control group. Fractions of 10 μl each were collected from the reaction solutions and dispensed into each well of another 96-well plate. Thereafter, 100 μl of an assay reagent comprising a lytic solution (Z buffer: 60 mM Na2HPO4, 40 mM NaH2PO4, 1 mM MgCl2, 10 mM KCl, 2 mM dithiothreitol, 0.20% N-lauroylsarcosine sodium salt) mixed with 1 mg/ml ONPG (orthonitrophenylgalactopyranoside) was dispensed into each well, and the reaction was allowed to proceed at 37° C. for 30 minutes. Thereafter, the absorbance (O.D. 405) and the turbidity (O.D. 595) of the reaction solutions were assayed at the wavelength of 405 nm using a microplate reader (tradename: iMark microplate reader, Bio-Rad Laboratories). The increase of induction was calculated in accordance with the following formula.
(§4) The increase of induction is described in Ito-Harashima S et al., FEBS Open Bio., 7 (7): pp. 995-1008, 2017. When the increase of induction is positive, the transformant is determined to have reporter activity to the substance tested. The test was performed once or repeated 3 times, 5 times, or 15 times, and the average increase of induction was calculated. The control yeast 1 was treated in the same manner and reporter activity was compared.
In the same manner as in Test Example 1, the Yeasts 2, 3, 4, 5, 6, 7, 9, 10, 11, 12, 13, 14, 15, 16, 17, 18, 19, and 20 of Invention were subjected to assays of reporter activity to methyl farnesoate. The test was performed in accordance with Test Example 1, and reporter activity of the yeasts indicated above was compared with that of the control yeasts 2, 3, and 4.
With the use of the control yeast 7 comprising a different nucleotide sequence of the C-box (CACGCG) in the response element, the control yeast 8 comprising a different nucleotide sequence of the E-box (CACGTG), and the control yeast 9 comprising different nucleotide sequences of the C-box and the E-box from the relevant nucleotide sequences of the Yeast 4 of Invention, the influence of a core sequence on reporter activity to methyl farnesoate was evaluated. The test was performed in accordance with Test Example 1.
(§5) With the use of the Yeast 4 and the Yeast 8 of the present Invention, reporter activity to sex hormones; i.e., 17β-estradiol and testosterone, insect juvenile hormones; i.e., juvenile hormone III, and chemical substances suspected of having endocrine disrupting actions, such as 4-nonyl phenol, bisphenol A, 1,1,1-trichloro-2,2-bis(4-chlorophenyl)ethane (DDT), 2,2-bis(4-chlorophenyl)-1,1-dichloroethylene (DDE), and dieldrin, was assayed. The test was performed in accordance with Test Example 1. All the test substances were treated at 10 μM. […]

[2] = tested on: juvenile hormone receptor of Drosophila melanogaster (DmMET); experiment: Yeast reporter (β-galactosidase) assay, transformants with DmMET and DmTai; conditions: test substance 10 μM
Experimental: A plasmid expressing a juvenile hormone receptor of Drosophila melanogaster (hereafter, referred to as a “DmMET plasmid”) was prepared in the same manner. At the outset, ORF of cDNA of the DmMET gene was amplified by PCR using, as a template, cDNA of Drosophila melanogaster larvae (Clontech) and the primers for DmMET: DmMET Fwd (SEQ ID NO: 21) and DmMET Rev (SEQ ID NO: 22). PCR was carried out by repeating a cycle of 98° C. for 10 seconds, 55° C. for 30 seconds, and 68° C. for 1.5 minutes 25 times.
as §1, §2, §3, §4
With the use of the Yeast 4 and the Yeast 8 of the present Invention, reporter activity to sex hormones; i.e., 17β-estradiol and testosterone, insect juvenile hormones; i.e., juvenile hormone III, and chemical substances suspected of having endocrine disrupting actions, such as 4-nonyl phenol, bisphenol A, 1,1,1-trichloro-2,2-bis(4-chlorophenyl)ethane (DDT), 2,2-bis(4-chlorophenyl)-1,1-dichloroethylene (DDE), and dieldrin, was assayed. The test was performed in accordance with Test Example 1. All the test substances were treated at 10 μM. For comparison, reporter activity to compounds was assayed using the control yeast 5 and the control yeast 6 comprising a known juvenile hormone receptor response element (i.e., the JH response element of Drosophila melanogaster) integrated therein.

[3] = tested on: juvenile hormone receptor of Daphnia magna (DampaMET); experiment: Yeast reporter (β-galactosidase) assay, Control yeast 5 with DampaMET, DmTai and DmJHRR; conditions: Control yeast 5 (DmJHRR x3, DampaMET, DmTai), test substance 10 μM
Experimental: For further comparison, a plasmid comprising a region including the juvenile hormone response element of the Kr-hi gene of Drosophila melanogaster (DmJHRR) inserted thereinto was prepared. DmJHRR is described in He Q et al., J. Biol. Chem., 289 (40), pp. 27874-27885, 2014. A plasmid comprising 3 consecutive repeats of the DmJHRR sequence inserted thereinto was prepared in accordance with the method described above, except that oligo DNA comprising the DmJHRR sequence (SEQ ID NO: 15) was used instead of the oligo DNA shown in SEQ ID NO: 3 and oligo DNA partially complementary to SEQ ID NO: 15 (SEQ ID NO: 16) was used instead of the oligo DNA shown in SEQ ID NO: 4.
as §1, §2, §3, §4, §5

[4] = tested on: juvenile hormone receptor of Daphnia magna (DampaMET); experiment: Yeast reporter assay for antagonist activity in the presence of 10 nM methyl farnesoate; conditions: Yeast 4 of Invention; test substance 10 μM in the presence of 10 nM methyl farnesoate; 0 = group treated with 10 nM methyl farnesoate
Experimental: as §2
A reaction solution prepared with the addition of 1 μl of DMSO instead of a diluted methyl farnesoate solution was designated as a control group. Fractions of 10 μl each were collected from the reaction solutions and dispensed into each well of another 96-well plate. […] Thereafter, the absorbance (O.D. 405) and the turbidity (O.D. 595) of the reaction solutions were assayed at the wavelength of 405 nm using a microplate reader (tradename: iMark microplate reader, Bio-Rad Laboratories). The increase of induction was calculated in accordance with the following formula.
as §4, with “The control yeast 1 was treated in the same manner and reporter activity was compared.” left out
With the use of the yeast 4 of the present invention, antagonist activity of juvenile hormone receptors to endrin, aldrin, and dieldrin was evaluated at 10 μM. […]

[5] = Yeast 4 of Invention (SEQ ID NO: 2 x4), test substance 100 μM
[6] = Yeast 4 of Invention (SEQ ID NO: 2 x4, DampaMET, DampaSRC), test substance 10 μM
[7] = Control yeast 6 (DmJHRR x3, DmMET, DmTai)
[8] = Yeast 8 of Invention (SEQ ID NO: 2 x4, DmMET, DmTai)

Question: `COc1ccc(-n2c(=O)c(C(=O)C3C(=O)CCCC3=O)nc3c(Cl)cccc32)cc1` [Fenquinotrione, fenquinotrione] was tested. Which Increase in induction [1, 5] did it give?
Answer: −0.24

Question: With `COC(=O)NCc1cc(/C(C)=N/OCc2cccc(C)n2)ccc1Cl` [Pyribencarb, pyribencarb] as the compound, how does the Increase in induction [1, 5] read?
Answer: −0.24

Question: For `Clc1ccc(C(c2ccc(Cl)cc2)C(Cl)(Cl)Cl)cc1` [DDT, 1,1,1-trichloro-2,2-bis(4-chlorophenyl)ethane], which Increase in induction [1, 6] is on record?
Answer: 0.65

Question: And the Increase in induction [2, 7]?
Answer: −0.24

Question: And the Increase in induction [2, 8]?
Answer: 0.37

Question: And the Increase in induction [3]?
Answer: −0.07

Question: `Cn1nc(C(F)(F)F)c(CS(=O)(=O)C2=NOC(C)(C)C2)c1OC(F)F` [Pyroxasulfone, pyroxasulfone] was tested. Which Increase in induction [1, 5] did it give?
Answer: −0.50

Question: Which results are given for `CC(C)(c1ccc(O)cc1)c1ccc(O)cc1` [Bisphenol A, bisphenol A]?
Answer: Increase in induction [1, 6]: 1.14; Increase in induction [2, 7]: −0.23; Increase in induction [2, 8]: 0.52; Increase in induction [3]: −0.38

Question: Which Increase in induction [1, 5] does the source give for `CC#Cc1cc(C)nc(Nc2ccccc2)n1` [Mepanipyrim, mepanipyrim] here?
Answer: −0.76

Question: Which results are given for `ClC1=C(Cl)[C@]2(Cl)[C@@H]3[C@@H]4C[C@@H]([C@H]5O[C@@H]45)[C@@H]3[C@@]1(Cl)C2(Cl)Cl` [Dieldrin, dieldrin]?
Answer: Increase in induction (antagonist activity) [4]: −12.46; Increase in induction [1, 6]: 3.85; Increase in induction [2, 7]: −0.02; Increase in induction [2, 8]: 0.89; Increase in induction [3]: 0.00

Question: How did the Increase in induction [1, 6] turn out when `ClC(Cl)=C(c1ccc(Cl)cc1)c1ccc(Cl)cc1` [DDE, 2,2-bis(4-chlorophenyl)-1,1-dichloroethylene] was run?
Answer: 2.15

Question: And the Increase in induction [2, 7]?
Answer: −0.19

Question: What about the Increase in induction [2, 8] of the same compound?
Answer: 1.23

Question: What about the Increase in induction [3] of the same compound?
Answer: −0.08

Question: `COC(=O)/C=C(\C)CC/C=C(\C)CC[C@H]1OC1(C)C` [Juvenile hormone III, juvenile hormone III] was tested. Which Increase in induction [1, 6] did it give?
Answer: 6.20

Question: And the Increase in induction [2, 7]?
Answer: 0.58

Question: And the Increase in induction ([2]; Control yeast 6 (DmJHRR x3, DmMET, DmTai), listed as juvenile hormone III)?
Answer: induced

Question: What about the Increase in induction [2, 8] of the same compound?
Answer: 1.45

Question: And the Increase in induction [3]?
Answer: 0.41

Question: What about the Increase in induction ([3]; listed as juvenile hormone III) of the same compound?
Answer: induced

Question: `CCCCCCCCCc1ccc(O)cc1` [4-nonyl phenol] was tested. Which Increase in induction [1, 6] did it give?
Answer: 2.16

Question: And the Increase in induction [2, 8]?
Answer: 1.81

Question: How did the “Increase in induction (antagonist activity)” value [4] turn out when `ClC1=C(Cl)C2(Cl)C3C4CC(C5OC45)C3C1(Cl)C2(Cl)Cl` (stereo not shown) [Endrin, endrin] was run?
Answer: −0.03

Question: How did the “Increase in induction (antagonist activity)” value [4] turn out when `ClC1=C(Cl)C2(Cl)C3C4C=CC(C4)C3C1(Cl)C2(Cl)Cl` (stereo not shown) [Aldrin, aldrin] was run?
Answer: −9.02

Question: Which results are given for `C[C@]12CC[C@H]3[C@@H](CCC4=CC(=O)CC[C@@]43C)[C@@H]1CC[C@@H]2O` [Testosterone, testosterone]?
Answer: Increase in induction [1, 6]: 1.78; Increase in induction [2, 7]: −0.22; Increase in induction [2, 8]: 0.98; Increase in induction [3]: −0.02

Question: For `C[C@]12CC[C@@H]3c4ccc(O)cc4CC[C@H]3[C@@H]1CC[C@@H]2O` [17β-estradiol], which Increase in induction [1, 6] is on record?
Answer: 1.97

Question: What about the Increase in induction [2, 7] of the same compound?
Answer: −0.29

Question: What about the Increase in induction [2, 8] of the same compound?
Answer: 1.01

Question: And the Increase in induction [3]?
Answer: −0.14

Question: Which Increase in induction [1, 5] does the source give for `CC(C)OC(=O)N[C@H](C(=O)N[C@H](C)c1nc2ccc(F)cc2s1)C(C)C` [Benthiavalicarb isopropyl, benthiavalicarb isopropyl] here?
Answer: −0.37
